Test results: US20180085330A1, “Dose Adjustment” (AbbVie Inc., priority 2016, published 2018)
Read-outs that look alike come from different tables or passages of the source. One block for each compound: values may come before it.

Key:
[1] = Drug-drug interaction evaluation in overseas subjects, Phase 1 clinical studies (Example 6); format: in vivo, human (overseas subjects); conditions: coadministered with glecaprevir and pibrentasvir
Experimental: The drug-drug interaction (DDI) of glecaprevir and pibrentasvir was characterized from Phase 1 clinical studies in overseas subjects. DDI was evaluated between glecaprevir and pibrentasvir and drug transporter and CYP probes (CYP3A4, CYP1A2, CYP2D6, CYP2C9 and CYP2C19) and concomitant medications used in HCV-infected subjects including anti-retroviral (ARVs), calcium-channel blockers (CCB), angiotensin-receptor blockers (ARBs), opioids and tacrolimus. Safety and tolerability were assessed throughout the studies.

[2] = Drug interaction studies: pharmacokinetic parameters of coadministered drug in the presence of glecaprevir/pibrentasvir; format: in vivo, human; conditions: digoxin 0.5 mg single dose; GLE/PIB 400/120 mg once daily
Experimental: (§1) Drug interaction studies were performed with glecaprevir/pibrentasvir and other drugs that are likely to be coadministered and with drugs commonly used as probes for pharmacokinetic interactions.

[3] = Potentially significant drug interactions identified in drug interaction studies (effect on concentration); format: in vivo, human
Excerpt: Table 1 provides the effect of coadministration of glecaprevir and pibrentasvir on concentrations of concomitant drugs and the effect of concomitant drugs on glecaprevir and pibrentasvir.

[4] = Digoxin single dose with multiple doses of glecaprevir and pibrentasvir (Example 3); format: in vivo, human (adult male and female subjects)
Excerpt: This Example assessed pharmacokinetics, safety, and tolerability of multiple doses of glecaprevir and pibrentasvir with a single dose of digoxin. Adult male and female subjects in general good health (N=12) were enrolled in the study.

[5] = biological target: T1, CYP1A2 (Homo sapiens, UniProt P05177); assay: CYP1A2 inhibition; format: in vitro ADME
T1 sequence (P05177 1-516): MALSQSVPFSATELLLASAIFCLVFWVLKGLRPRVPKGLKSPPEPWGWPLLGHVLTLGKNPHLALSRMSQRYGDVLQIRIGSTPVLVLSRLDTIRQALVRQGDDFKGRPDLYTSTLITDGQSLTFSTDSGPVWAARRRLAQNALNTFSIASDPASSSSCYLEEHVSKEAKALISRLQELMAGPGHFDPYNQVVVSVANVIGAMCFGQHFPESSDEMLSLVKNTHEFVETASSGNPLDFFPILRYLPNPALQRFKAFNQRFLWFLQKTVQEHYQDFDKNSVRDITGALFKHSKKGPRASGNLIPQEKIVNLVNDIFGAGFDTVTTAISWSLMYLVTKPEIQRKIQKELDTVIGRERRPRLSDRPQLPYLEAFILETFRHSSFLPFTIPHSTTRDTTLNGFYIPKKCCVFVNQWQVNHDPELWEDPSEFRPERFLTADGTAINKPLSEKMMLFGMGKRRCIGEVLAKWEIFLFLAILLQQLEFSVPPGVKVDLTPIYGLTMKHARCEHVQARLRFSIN

[6] = biological target: P-glycoprotein (P-gp) (Homo sapiens, UniProt P08183); assay: P-gp inhibition; format: in vitro ADME
Sequence of P-glycoprotein (P-gp) (P08183 whole entry): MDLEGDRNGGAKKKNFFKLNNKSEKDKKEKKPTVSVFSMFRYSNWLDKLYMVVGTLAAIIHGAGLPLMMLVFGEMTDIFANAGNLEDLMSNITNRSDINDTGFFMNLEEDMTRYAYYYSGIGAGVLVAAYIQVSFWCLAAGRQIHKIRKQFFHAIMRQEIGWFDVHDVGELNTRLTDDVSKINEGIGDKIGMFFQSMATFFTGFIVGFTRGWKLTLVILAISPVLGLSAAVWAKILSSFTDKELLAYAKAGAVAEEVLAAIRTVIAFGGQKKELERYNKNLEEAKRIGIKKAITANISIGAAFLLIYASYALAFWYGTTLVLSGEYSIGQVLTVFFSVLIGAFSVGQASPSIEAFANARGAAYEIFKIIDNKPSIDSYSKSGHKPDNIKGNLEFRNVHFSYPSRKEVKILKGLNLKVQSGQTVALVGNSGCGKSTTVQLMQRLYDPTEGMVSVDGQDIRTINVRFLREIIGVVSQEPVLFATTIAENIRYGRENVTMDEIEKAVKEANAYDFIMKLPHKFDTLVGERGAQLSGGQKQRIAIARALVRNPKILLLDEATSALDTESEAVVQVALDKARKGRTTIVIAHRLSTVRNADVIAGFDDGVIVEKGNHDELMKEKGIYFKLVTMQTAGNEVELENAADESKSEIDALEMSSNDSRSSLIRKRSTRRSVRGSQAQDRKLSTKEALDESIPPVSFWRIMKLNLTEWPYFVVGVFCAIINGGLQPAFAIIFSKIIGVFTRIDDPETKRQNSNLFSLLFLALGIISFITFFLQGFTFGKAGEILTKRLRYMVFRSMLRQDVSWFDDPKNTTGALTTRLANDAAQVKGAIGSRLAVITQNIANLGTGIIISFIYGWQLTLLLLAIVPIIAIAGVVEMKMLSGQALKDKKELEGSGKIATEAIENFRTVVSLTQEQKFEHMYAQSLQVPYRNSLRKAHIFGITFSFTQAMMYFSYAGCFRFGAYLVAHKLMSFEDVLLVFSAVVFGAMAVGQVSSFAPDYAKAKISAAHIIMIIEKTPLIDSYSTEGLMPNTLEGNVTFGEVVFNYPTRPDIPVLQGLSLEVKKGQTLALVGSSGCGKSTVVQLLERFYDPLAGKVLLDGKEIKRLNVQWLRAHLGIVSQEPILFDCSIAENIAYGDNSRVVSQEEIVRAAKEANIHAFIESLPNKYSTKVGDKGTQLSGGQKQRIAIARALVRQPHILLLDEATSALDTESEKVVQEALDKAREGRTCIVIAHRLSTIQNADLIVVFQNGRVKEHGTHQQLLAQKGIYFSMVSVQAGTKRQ

[7] = biological target: T2, breast cancer resistance protein (BCRP) (Homo sapiens, UniProt Q9UNQ0); assay: BCRP inhibition; format: in vitro ADME
T2 sequence (Q9UNQ0 1-655): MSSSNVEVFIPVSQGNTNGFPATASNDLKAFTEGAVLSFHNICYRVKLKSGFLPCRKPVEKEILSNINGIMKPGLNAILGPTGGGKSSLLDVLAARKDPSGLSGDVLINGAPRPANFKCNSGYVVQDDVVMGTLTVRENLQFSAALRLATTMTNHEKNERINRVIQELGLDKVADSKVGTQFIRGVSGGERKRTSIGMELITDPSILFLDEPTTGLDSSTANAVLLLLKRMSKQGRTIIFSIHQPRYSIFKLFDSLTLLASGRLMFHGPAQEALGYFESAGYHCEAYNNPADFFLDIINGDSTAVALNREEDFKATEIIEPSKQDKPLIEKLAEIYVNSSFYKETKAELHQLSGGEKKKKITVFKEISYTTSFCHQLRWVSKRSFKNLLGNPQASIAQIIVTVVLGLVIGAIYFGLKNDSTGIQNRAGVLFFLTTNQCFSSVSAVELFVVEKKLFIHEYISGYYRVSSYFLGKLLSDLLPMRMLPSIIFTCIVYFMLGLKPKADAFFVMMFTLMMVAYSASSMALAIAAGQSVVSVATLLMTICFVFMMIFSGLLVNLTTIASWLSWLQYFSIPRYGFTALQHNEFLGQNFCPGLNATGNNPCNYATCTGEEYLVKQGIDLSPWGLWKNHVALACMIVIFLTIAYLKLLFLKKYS

[8] = biological target: T3, uridine glucuronosyltransferase (UGT) 1A1 (Homo sapiens, UniProt P22309); assay: UGT1A1 inhibition; format: in vitro ADME
T3 sequence (P22309 26-533): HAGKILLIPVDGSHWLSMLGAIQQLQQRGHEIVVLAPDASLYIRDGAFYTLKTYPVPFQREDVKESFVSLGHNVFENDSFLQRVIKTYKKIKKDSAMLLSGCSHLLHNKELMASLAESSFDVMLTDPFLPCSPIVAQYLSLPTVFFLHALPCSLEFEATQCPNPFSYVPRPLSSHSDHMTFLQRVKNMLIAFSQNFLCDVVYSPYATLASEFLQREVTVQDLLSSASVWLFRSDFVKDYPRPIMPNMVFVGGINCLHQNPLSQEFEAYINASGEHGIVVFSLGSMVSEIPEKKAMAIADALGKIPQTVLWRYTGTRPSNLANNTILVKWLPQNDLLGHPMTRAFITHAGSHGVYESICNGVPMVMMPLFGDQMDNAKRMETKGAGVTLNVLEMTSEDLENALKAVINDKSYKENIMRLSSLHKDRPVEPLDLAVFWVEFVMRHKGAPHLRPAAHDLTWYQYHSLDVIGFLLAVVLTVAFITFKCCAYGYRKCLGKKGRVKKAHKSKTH

[9] = system: OATP1B1/3; assay: Substrate of OATP1B1/3; format: in vitro ADME
[10] = system: cytochrome P450 (CYP) 3A; assay: CYP3A inhibition; format: in vitro ADME
[11] = Drug interaction studies: pharmacokinetic parameters of glecaprevir or pibrentasvir in the presence of coadministered drug; format: in vivo, human
Experimental: as §1

[12] = system: organic anion transporting polypeptide (OATP) 1B1/3; assay: OATP1B1/3 inhibition; format: in vitro ADME
[13] = system: P-gp and/or BCRP; assay: Substrate of P-gp and/or BCRP; format: in vitro ADME
[14] = digoxin 0.5 mg single dose with glecaprevir 400 mg QD + pibrentasvir 120 mg QD
[15] = digoxin 0.5 mg single dose, glecaprevir 400 mg QD + pibrentasvir 120 mg QD
[16] = with atazanavir + ritonavir 300 + 100 mg once daily, GLE/PIB 300/120 mg once daily, effect on the first dose of glecaprevir and pibrentasvir
[17] = with carbamazepine 200 mg twice daily, GLE/PIB 300/120 mg single dose
[18] = with cyclosporine 100 mg single dose, GLE/PIB 300/120 mg once daily
[19] = with cyclosporine 400 mg single dose, GLE/PIB 300/120 mg single dose
[20] = with darunavir + ritonavir 800 + 100 mg once daily, GLE/PIB 300/120 mg once daily
[21] = with elvitegravir/cobicistat/emtricitabine/tenofovir alafenamide 150/150/200/10 mg once daily, GLE/PIB 300/120 mg once daily
[22] = with lopinavir/ritonavir 400/100 mg twice daily, GLE/PIB 300/120 mg once daily
[23] = with omeprazole 20 mg once daily, GLE/PIB 300/120 mg single dose
[24] = with omeprazole 40 mg once daily (1 hour before GLE/PIB), GLE/PIB 300/120 mg single dose
[25] = with rifampin 600 mg (first close), GLE/PIB 300/120 mg single dose
[26] = with rifampin 600 mg once daily, GLE/PIB 300/120 mg single dose 24 hours after final rifampin dose

Compound: C[C@H]1O[C@@H](O[C@H]2[C@@H](O)C[C@H](O[C@H]3[C@@H](O)C[C@H](O[C@H]4CC[C@@]5(C)[C@H](CC[C@@H]6[C@@H]5C[C@@H](O)[C@]5(C)[C@@H](C7=CC(=O)OC7)CC[C@]65O)C4)O[C@@H]3C)O[C@@H]2C)C[C@H](O)[C@@H]1O [digoxin]
AUC increase [1]: 48% | Central Value Ratio (90% CI) AUC [2]: 1.48 | Central Value Ratio (90% CI) Cmax [2]: 1.72 | Effect on Concentration ([3]; concentration of the concomitant drug when coadministered with glecaprevir and pibrentasvir): ↑ digoxin | AUCinf higher when coadministered, compared to digoxin alone [4, 14]: 48% | Cmax higher when coadministered, compared to digoxin alone [4, 14]: 72% | fraction of digoxin eliminated in urine, difference with and without glecaprevir and pibrentasvir [4, 15]: ≤ 18% | renal clearance, difference with and without glecaprevir and pibrentasvir [4, 15]: ≤ 18%

inhibition of CYP1A2 [5]: weak inhibitors | inhibition of P-gp [6]: inhibitors | inhibition of BCRP [7]: inhibitors | Effect on Concentration ([3]; concomitant Darunavir, Lopinavir, Ritonavir): ↑ glecaprevir | Effect on Concentration ([3]; concomitant St. John's Wort (hypericum perforatum)): ↓ glecaprevir | Effect on Concentration ([3]; concomitant drug Carbamazepine): ↓ glecaprevir | Effect on Concentration ([3]; concomitant drug Cyclosporine): ↑ glecaprevir | Effect on Concentration ([3]; concomitant drug Efavirenz): ↓ glecaprevir | inhibition of UGT1A1 [8]: weak inhibitors | substrate of OATP1B1/3 [9]: substrate | inhibition of CYP3A [10]: weak inhibitors | Central Value Ratio (90% CI) AUC [11, 16]: ≥6.53 | Central Value Ratio (90% CI) Cmax [11, 16]: ≥4.06 | Central Value Ratio (90% CI) Cmin [11, 16]: ≥14.3 | Central Value Ratio (90% CI) AUC [11, 17]: 0.34 | Central Value Ratio (90% CI) Cmax [11, 17]: 0.33 | Central Value Ratio (90% CI) AUC [11, 18]: 1.37 | Central Value Ratio (90% CI) Cmax [11, 18]: 1.30 | Central Value Ratio (90% CI) Cmin [11, 18]: 1.34 | Central Value Ratio (90% CI) AUC [11, 19]: 5.08 | Central Value Ratio (90% CI) Cmax [11, 19]: 4.51 | Central Value Ratio (90% CI) AUC [11, 20]: 4.97 | Central Value Ratio (90% CI) Cmax [11, 20]: 3.09 | Central Value Ratio (90% CI) Cmin [11, 20]: 8.24 | Central Value Ratio (90% CI) AUC [11, 21]: 3.05 | Central Value Ratio (90% CI) Cmax [11, 21]: 2.50 | Central Value Ratio (90% CI) Cmin [11, 21]: 4.58 | Central Value Ratio (90% CI) AUC [11, 22]: 4.38 | Central Value Ratio (90% CI) Cmax [11, 22]: 2.55 | Central Value Ratio (90% CI) Cmin [11, 22]: 18.6 | Central Value Ratio (90% CI) AUC [11, 23]: 0.71 | Central Value Ratio (90% CI) Cmax [11, 23]: 0.78 | Central Value Ratio (90% CI) AUC [11, 24]: 0.49 | Central Value Ratio (90% CI) Cmax [11, 24]: 0.36 | Central Value Ratio (90% CI) AUC [11, 25]: 8.55 | Central Value Ratio (90% CI) Cmax [11, 25]: 6.52 | Central Value Ratio (90% CI) AUC [11, 26]: 0.12 | Central Value Ratio (90% CI) Cmax [11, 26]: 0.14 | inhibition of OATP1B1/3 [12]: inhibitor | inhibition of OATP1B1/3 ([12]; listed as Glecaprevir): inhibitors | substrate of P-gp and/or BCRP [13]: substrates
Compound: CC(C)(C)[C@@H]1NC(=O)O[C@@H]2CCC[C@H]2OC/C=C/C(F)(F)c2nc3ccccc3nc2O[C@@H]2C[C@@H](C(=O)N[C@]3(C(=O)NS(=O)(=O)C4(C)CC4)C[C@H]3C(F)F)N(C2)C1=O [glecaprevir, Glecaprevir]

inhibition of CYP1A2 [5]: weak inhibitors | inhibition of P-gp [6]: inhibitors | inhibition of BCRP [7]: inhibitors | inhibition of UGT1A1 [8]: weak inhibitors | inhibition of CYP3A [10]: weak inhibitors | inhibition of OATP1B1/3 [12]: inhibitors | substrate of P-gp and/or BCRP [13]: substrates
Compound: COC(=O)N[C@H](C(=O)N1CCC[C@H]1c1nc2cc([C@H]3CC[C@H](c4cc5nc([C@@H]6CCCN6C(=O)[C@@H](NC(=O)OC)[C@@H](C)OC)[nH]c5cc4F)N3c3cc(F)c(N4CCC(c5ccc(F)cc5)CC4)c(F)c3)c(F)cc2[nH]1)[C@@H](C)OC [pibrentasvir]
